“Also recorded” adds a separate entry of the source.
Key:
Sphingomonas capsulata = assay: Antibacterial efficacy in Sphingomonas capsulata infected mice; format: in vivo, mouse
Description: Sphingomonas capsulata is a common environmental bacterial strain that is found in many places such as the air and water. It can be easily identified on nutrient agar plates because of its yellow colony color. […] Since the antibacterial activities of glycolipid antigens are mediated through the activation of NKT cells by glycolipid bound-CD1-d molecules, evaluation of the antibacterial efficacies using the disease model of Sphingomonas capsulata infection will focus on the impact of the NKT mediated pathway that is activated by glycolipid bindings. Six to eight week old female C57BL/6 mice were injected IP with Sphingomonas capsulate cells. […] Twenty-four hours after bacterial infection, livers were removed from mice and homogenized. Colony formation units (CFU) of Sphingomonas capsulate in liver homogenates were determined by plating diluted samples on nutrient plates. Colonies were counted after incubation for 48 hours at 37° C. […] To confirm the antibacterial efficacies of these α-GalCer analogs, another study was conducted to repeat the study by treating infected mice with 50 μg/kg in the same disease model. […] Six to eight week old female C57BL/6 mice were injected IP with 5×10^8 Sphingomonas capsulate cells. Mice were grouped into treatment and control groups with 4-6 mice per group. Four hours after the infection, mice in the treatment group were injected IP with testing α-GalCer analogs at 50 or 100 μg/kg, and the control group mice were injected with same volumes of PBS. Twenty-four hours after bacterial infection, mice from all groups were sacrificed. Livers were removed from mice and homogenized in 0.9% NaCl, 0.02% Tween 80 using tissue homogenizers. Colony formation units (CFU) of Sphingomonas capsulate in liver homogenates were determined by plating diluted samples on nutrient plates. Colonies were counted after incubation for 48 hours at 37° C.

[1] = format: in vivo, mouse; conditions: two weeks after the third vaccination
Protocol: BALB/c mice were injected IM with globo H-DT/α-GalCer or globo H-DT/α-GalCer analogs three times at two weeks interval. Sera was collected two weeks after the third vaccination and tested for IgG and IgM anti-globo H-specific antibody at 1:480 and 1:240 dilution, respectively, using a glycan microarray.

[2] = tested on: syngeneic lung cancer (TC1) cells; assay: Lung cancer model in mice (TC1, IV inoculation); format: in vivo, mouse; conditions: IV administration
[3] = tested on: FLU-A virus serotype H1N1 (WSN); assay: Cytopathetic effect / virus titer in MDCK cells infected with H1N1 (WSN); format: cell-based; conditions: pretreated at 10 μg/ml for four hours; 10TCID50; 48 hours post-infection
Protocol: FIG. 60(A-B) show the cytopathetic effect (CPE) of Madin-Darby canine kidney (MDCK) cells in vitro. MDCK cells were pretreated with vehicle, α-GalCer or one of the α-GalCer analogs C13, C14 or C16 at 10 μg/ml for four hours, followed by infection with FLU-A virus serotype H1N1 (WSN) at 10TCID50.
BALB/c mice were treated via intranasal route with control, α-GalCer (C1) or the α-GalCer analogs C13, C14 or C16 at one hour prior to virus challenge with H1N1 (WSN). […] In general, certain α-GalCer analogs may exert direct anti-viral effects, or act indirectly via immune stimulation. […] MDCK cells were pretreated with vehicle, α-GalCer or one of the α-GalCer analogs C13, C14 or C16 at 10 μg/ml for four hours, followed by infection with FLU-A virus serotype H1N1 (WSN) at 10TCID50.

C57BL/6 mice = assay: Expansion of NKT subsets in spleens of C57BL/6 mice; format: in vivo; conditions: C57BL/6 Wt, 72 h post IV injection, 0.1 μg per mouse
BALB/c mice [4] = assay: Mouse serum cytokines/chemokines after IV, SubQ or IM injection; format: in vivo; conditions: IV route
[5] = tested on: mycobacterium tuberculosis, Pseudomonas aeruginosa; conditions: in vivo; cited from earlier work
[6] = tested on: human naïve NKTs (CD161^+CD3^+); assay: Cytokine/chemokine secretion by human naïve CD161+CD3+ NKTs co-cultured with autologous immature CD14+ DCs; format: cell-based; conditions: normalized to DMSO control
mouse spleen cells = conditions: in vitro stimulation; cited from earlier work
[7] = tested on: syngeneic breast cancer (4T1); assay: Breast cancer model in mice (4T1, SubQ inoculation); format: in vivo, mouse; conditions: mice bearing breast cancer
Klebsiella pneumoniae = assay: Antibacterial efficacy in K. pneumoniae infected mice; format: in vivo, mouse; conditions: 100 μg/kg twice at 4-hour and 8-hour after infection
Protocol: K. pneumoniae is a Gram negative bacterium that causes liver abscess and is becoming a serious disease in Taiwan among diabetic patients. […] BALB/cByl female mice were administered a single dose of live K. pneumoniae by oral gavage. […] Twenty four hours after infection, both the liver and lungs were collected from each mouse, and homogenized. Bacterial counts were determined similarly as described above. BALB/c-Byl female mice (ten mice per group) were administered a single dose (10^6 CFU) of live-K. pneumoniae by oral gavage. Mice in the treatment groups were injected with testing α-GalCer analogs at 100 μg/kg twice at 4-hour and 8-hour after bacterial infection. Mice in the control group were injected with PBS at 4- and 8-hour. Twenty four hours after infection, all mice were sacrificed. Both livers and lungs were collected from each mouse, and homogenized. Bacterial counts were determined similarly as described above.

tetanus toxoid (TT) = conditions: mouse, in vivo
advanced cancers = conditions: cited from earlier work
BALB/c mice [8] = assay: Expansion/activation of mouse splenocyte subpopulations 72 h after injection; format: in vivo
tumor metastasis = conditions: mice; cited from earlier work
naïve CD161^+/CD3^+ NKTs = assay: Human NKT TCR activation (phosphoproteins), glycolipid presented by HeLa, HeLa-CD1d or iDCs, 10 μg/ml; format: cell-based; conditions: 10 μg/ml
[9] = tested on: H5 of avian influenza viruses (pHA); format: in vivo, mouse

CCCCCCCCCCCCCCCCCCCCCCCCCC(=O)N[C@@H](CO[C@H]1O[C@H](CO)[C@H](O)[C@H](O)[C@H]1O)[C@H](O)[C@H](O)CCCCCCCCCCCCCC [C1, α-Galactosyl ceramide, reference compound]
difference in the values of the CFU per gram liver among efficacious groups (Sphingomonas capsulata; 50 μg/kg): not statistically significant
CFU numbers in liver (Sphingomonas capsulata; 100 μg/kg IP, 24 hour after bacterial infection): significantly lower than the control group
anti-globo H IgM antibody ([1]; 1:240 dilution): not in C1 treated group
anti-globo H IgG antibody ([1]; 1:480 dilution): elicited significant IgG antibody production
anti-cancer efficacy compared with C1 [2]: significantly greater anti-cancer efficacy than C1
entry/replication of H1N1 virus (virus titer) [3]: slight inhibition of the entry/replication of H1N1 virus in vitro
total number of NKTs and its two subtypes NKT1 and NKT2 (C57BL/6 mice): increase of total number of NKTs
IFN-γ/IL-4 ratio (TH1/TH2 bias) (BALB/c mice [4]; 2 hours, compared with C1): less TH2 responses than C1
serum level of IFN-γ (BALB/c mice [4]; over 72 hours): highest level of IFN-γ when given IV
antibacterial activities [5]: amelioration of mycobacterium tuberculosis infections, clearance of lung infection by Pseudomonas aeruginosa
IFN/IL-4 ratio (TH1/TH2 bias) [6]: more TH2-biased
NKT proliferation and cytokine production (mouse spleen cells): proliferation of NKTs and production of both IFN-[…] and IL-4
effect of route of administration (SubQ vs IV) on anti-tumor efficacy [7]: more effective than IV delivery in prolonging the survival of mice bearing breast cancer; also recorded: statistically better efficacy with SubQ delivery over IV route
bacterial loads in mouse lung and liver (Klebsiella pneumoniae): significantly reduce the bacterial loads in mouse lung and liver
antibody production compared with Alum (tetanus toxoid (TT)): significantly greater antibody production than Alum
antibody response relative to conventional vaccine (tetanus toxoid (TT)): ~2 fold
level of antibody after delayed boost compared with TT+Alum (tetanus toxoid (TT)): twice as high as those given TT+Alum
toxicity (advanced cancers; human, in vivo): without any toxicity
clinical anti-tumor outcome (advanced cancers; α-GalCer or α-GalCer-loaded iDCs, phase I): no durable tumor regression, stable disease was noted in several patients
B cell expansion (BALB/c mice [8]; FIGS. 26E, 28E and 30E): more active than C1
CD8^+ T cell expansion/activation (BALB/c mice [8]; FIGS. 26F, 28F and 30F): more active than C1
B cell expansion/activation (BALB/c mice [8]; SubQ route): significant activities
CD4^+ T cells (BALB/c mice [8]; SubQ route): most effective; also recorded: more active over control
tumor metastasis (tumor metastasis): suppress tumor metastasis to liver, lung and lymph nodes
intracellular phospho-CD3ε (naïve CD161^+/CD3^+ NKTs; presented by DCs): 10.8 folds
intracellular phospho-CD3ε (naïve CD161^+/CD3^+ NKTs; presented by HeLa-CD1d cells): 7.3 folds of control
phospho-ERK1/2 (naïve CD161^+/CD3^+ NKTs; with DCs): 30 folds
phospho-ERK1/2 (naïve CD161^+/CD3^+ NKTs; with HeLa-CD1d cells): 6.6 folds increase
adjuvant activities in enhancing the anti-HAc antibody titer ([9]; 0.2 μg pHAc): better adjuvant activities than the others in enhancing the antibody titer
anti-H5 responses ([9]; 5-45 μg H5 DNA vaccine, three weeks after first immunization): enhanced by α-GalCer at 5-30 μg H5 DNA, but reached a plateau at 45 μg
adjuvant effect on anti-H5 titers ([9]; H5 DNA dose 0.2-5 μg, two weeks after second immunization): evident for all low dosages tested
anti-HA-specific IgG antibody ([9]; three weeks after one dose immunization): enhanced

From patent US20080260774A1, “Alpha-galactosyl ceramide analogs and their use as immunotherapies” (priority 2007, published 2008)
